# Measurements from patent publication US20070098693A1, “Methods for enhancing engraftment of purified hematopoietic stem cells in allogenic recipients” (priority 2003, published 2007).
# Assays:
# Assay type in all cases: cell-based, mice
# [1] = system: B220^+/CD11c^dim/CD11b^− p-preDC; test: Cell death of sorted p-preDC after overnight culture (7AAD staining)
# Description: (§1) mAbs and Flow cytometry. The following mAbs (all from BD Biosciences Pharmingen, San Diego, Calif., except those labeled with APC-cy-7 from eBioscience, San Diego, Calif.) were used. To sort CD8^+/TCR^− FC: anti-CD8α (53-6.7) PE-labeled, anti-TCR β chain (H57-597) and anti-TCR γδ chain (GL3) FITC-labeled. To sort B220^+/CD11c^dim/CD11b^− p-preDC: anti-CD11b (M1/70) APC-labeled, anti-CD45R/B220 (RA3-6B2) APC-Cy7-labeled, anti-CD11c (HL3) PE-labeled, and anti-TCR β chain (H57-597), anti-TCR γδ chain (GL3), anti-CD14 (rmC5-3), anti-CD19 (1D3), anti-Pan-NK cells (DX5), and anti-NK1.1 (PK136), all FITC-labeled. To sort HSC: anti-TCR β chain (H57-597), anti-TCR γδ chain (GL3), anti-Ly-6G (Gr-1), anti-CD11b, Mac1 (M1/70), anti-CD8α (53-6.7) and anti-CD45R/B220 (RA3-6B2), all FITC-labeled, anti-Ly-6A/E (Sca-1) (E13-161.7) PE-labeled and anti-c-Kit (CD117) (2B8) APC-labeled. To restain the sorted FC population: purified anti-CD16/CD32 (FcγIII/II receptors) (2.4G2), anti-CD11c (HL3), anti-CD4 (RM4-5) and anti-CD19 (1D3) all APC-labeled, anti-CD45R/B220 (RA3-6B2) PerCP-labeled, and anti-Pan-NK cells (DX5), anti-NK1.1 (PK136), anti-CD14 (rmC5-3), and anti-Ly-6G (Gr-1) FITC-labeled. To analyze the activation state: anti-CD80 (B7-1) ([…]), anti-CD86 (B7-2) ([…]), and anti-I-A^b (Aβ^b) (AF6-120.1) FITC-labeled. For PBL typing and multilineage chimerism: anti-H-2 K^b (AF6-88.5) PE or FITC-labeled, anti-H-2K^k (36-7-5) PE or FITC-labeled, anti-TCR β chain (H57-597), anti-NK1.1 (PK136), anti-Ly-6G (Gr-1), anti-CD11b, Mac1 (M1/70) and anti-CD45R/B220 (RA3-6B2) all FITC-labeled. Detection of dead cells after cell culture was determined by using a 7-Amino-actinomycin D (7-AAD) (Molecular Probes, Eugene, Oreg.) followed by FACS analysis.
# CpG oligodeoxynucleotides (ODN) stimulation. […]
# CD8^+/TCR^− FC [2] = test: Cell death of sorted FC after overnight culture (7AAD staining)
# Description: as §1
# (§2) CpG oligodeoxynucleotides (ODN) stimulation. Sorted p-preDC or FC were cultured for 18 hours at 10^5 cells/200 μL in 96 well round-bottom culture plates in culture medium in the presence or absence of Toll-like receptor (TLR)-9 ligand, CPG-ODN 1668 (TCCATGACGTTCCGATGCT) (SEQ ID NO. 1) (GibcoBRL Custom Primers) at 1 μM, TLR-4 ligand, LPS from Escherichia coli (Sigma, MO, USA) at 10 μg/ml, as previously described^30. CpG or LPS-treated or untreated cells were subsequently assayed for: 1) the expression of DC activation/maturation cell surface markers by FACS, 2) their survival rate by 7AAD staining, or 3) morphological appearance by Wright Giemsa staining on cytospins. The supernatant of these cultures were collected for analysis of the production of different cytokines by ELISA.
# CD8^+/TCR^− FC [3] = test: CpG ODN / LPS stimulation of sorted FC, cytokine production by ELISA / multiplex
# Description: as §2
# Cytokine production by ELISA. Briefly, the cell-free supernatants of 12H, 18H, or 24H cultured cells (FC or p-preDC,) with or without CpG ODN or LPS were collected and kept frozen at −80° C. The amount of cytokine produced was determined by 1) ELISA kits for mouse IFN-α (R&D system) and mouse TNF-α (Biosource International), and 2). Multiplex for MIP 1αCCL3), GM-CSF, MCP-1 (CCL2), RANTES (CCL5), IFN-γ, IL-1β, IL-2, IL-4, IL-5, IL-6, IL-10, IL-12p70, IL-9, and IL13 on 18 hour incubation supernatants from three different experiments performed by Linco Diagnostic Services (St. Charles, Mo.).
# CD8^+/TCR^− FC [4] = test: Activation marker expression on sorted FC after 18 h culture (FACS)
# Description: as §1, §2
# [5] = system: B220^+/CD11c^dim/CD11b^− p-preDC; test: Activation marker expression on sorted p-preDC after 18 h culture (FACS)
# Description: as §1, §2
# [6] = fresh FC, overnight culture with CpG
# [7] = CpG ODN stimulation, 18 hours, multiplex
# [8] = FL-derived FC and FL-derived p-preDC (FIG. 4c), CpG-ODN overnight
# [9] = after culture with medium or CpG stimulation
# [10] = FL-derived FC, CpG ODN exposure overnight
# [11] = fresh BM FC, overnight exposure to CpG ODN, n=4
# [12] = FL-derived p-preDC, CpG ODN exposure overnight
# [13] = fresh BM p-preDC, overnight exposure to CpG ODN, n=2
substance,measurement,setting,value
"CpG ODN: Toll-like receptor (TLR)-9 ligand, CPG-ODN 1668 (TCCATGACGTTCCGATGCT) (SEQ ID NO. 1) (DNA, backbone and methylation of C not given here)",rescue of FL-derived p-preDC from death,[1]; CpG exposure (data not shown),partially rescued
same,mortality of p-preDC (dead),"[1]; fresh p-preDC, overnight culture with CpG",35±0.3%
same,decrease of mortality of FL-treated FC,"CD8^+/TCR^− FC [2]; FL-derived FC, CpG ODN overnight versus medium",10-15%
same,decrease of FC mortality compared to media alone,CD8^+/TCR^− FC [2]; [6],10%
same,mortality of FC (dead cells),CD8^+/TCR^− FC [2]; [6],43.5±3.5%
same,IL-6 production by FC,CD8^+/TCR^− FC [3]; [7],moderate amounts
same,IL-12p70 production by FC,CD8^+/TCR^− FC [3]; [7],low levels
same,Mip1-α/CCL3 production by FC,CD8^+/TCR^− FC [3]; [7],high amounts
same,RANTES/CCL5 production by FC,CD8^+/TCR^− FC [3]; [7],moderate amounts
same,TNF-α production by FC,"CD8^+/TCR^− FC [3]; CpG ODN stimulation, 24 hours, ELISA",large amounts
same,IFN-α secretion of FL-derived cells after CpG-ODN,CD8^+/TCR^− FC [3]; [8],increased further
same,IL-12p70 production of FL-derived cells after CpG-ODN,CD8^+/TCR^− FC [3]; [8],increased further
same,TNF-α production of FL-derived cells after CpG-ODN,CD8^+/TCR^− FC [3]; [8],increased further
same,GM-CSF production by FC,CD8^+/TCR^− FC [3]; [9],no
same,IFN-γ production by FC,CD8^+/TCR^− FC [3]; [9],low amounts
same,IL9 production by FC,CD8^+/TCR^− FC [3]; [9],low amounts
same,IL-1β production by FC,CD8^+/TCR^− FC [3]; [9],no
same,IL-2 production by FC,CD8^+/TCR^− FC [3]; [9],no
same,IL-4 production by FC,CD8^+/TCR^− FC [3]; [9],no
same,IL-5 production by FC,CD8^+/TCR^− FC [3]; [9],no
same,IL-10 production by FC,CD8^+/TCR^− FC [3]; [9],low amounts
same,IL-13 production by FC,CD8^+/TCR^− FC [3]; [9],no
same,MCP-1/CCL2 production by FC,CD8^+/TCR^− FC [3]; [9],low amounts
same,IFN-α production by FC,"CD8^+/TCR^− FC [3]; sorted bone marrow FC cultured with stimulus, ELISA",levels similar to those produced by p-preDC
same,CD80 expression on FL-derived FC after CpG ODN,CD8^+/TCR^− FC [4]; [10],48%
same,CD86 expression on FL-derived FC after CpG ODN,CD8^+/TCR^− FC [4]; [10],77%
same,Class II expression on FL-derived FC after CpG ODN,CD8^+/TCR^− FC [4]; [10],73%
same,CD80 expression on FC,CD8^+/TCR^− FC [4]; [11],23.5±8%
same,CD86 expression on FC,CD8^+/TCR^− FC [4]; [11],86±12%
same,Class II expression on FC,CD8^+/TCR^− FC [4]; [11],74±6.5%
same,CD80 expression on FL-derived p-preDC after CpG ODN,[5]; [12],63%
same,CD86 expression on FL-derived p-preDC after CpG ODN,[5]; [12],87%
same,Class II expression on FL-derived p-preDC after CpG ODN,[5]; [12],88%
same,CD80 expression on p-preDC,[5]; [13],12.5±1%
same,CD86 expression on p-preDC,[5]; [13],85±13%
same,Class II expression on p-preDC,[5]; [13],39±4%
